A word on the thermodynamic solubility: it is solubility found after equilibrating the solid with the medium.

A short description of this data set: physchem. Particulars: water. The method, then:
The samples were mechanically shaken in a thermostatic bath shaker (~ 200 rpm) to attain thermal equilibrium, an aliquot was centrifuged (when necessary) and filtered using a 0.45µm filter (cellulose acetate or cellulose nitrate, Advantec MFS Inc., Duplin, USA).
The samples were shaken for different time intervals.

Converted amounts (≈) assume the structure as drawn.

On to `OC[C@H]1O[C@@H]2O[C@H]3[C@H](O)[C@@H](O)[C@@H](O[C@H]4[C@H](O)[C@@H](O)[C@@H](O[C@H]5[C@H](O)[C@@H](O)[C@@H](O[C@H]6[C@H](O)[C@@H](O)[C@@H](O[C@H]7[C@H](O)[C@@H](O)[C@@H](O[C@H]8[C@H](O)[C@@H](O)[C@@H](O[C@H]1[C@H](O)[C@H]2O)O[C@@H]8CO)O[C@@H]7CO)O[C@@H]6CO)O[C@@H]5CO)O[C@@H]4CO)O[C@@H]3CO` [β-cyclodextrin], for which the thermodynamic solubility worked out at 115 mM (≈ 131 mg/mL).

The values are drawn from patent publication EP1570862A1, “Highly soluble binary cyclodextrin inclusion complexes” (priority 2004, dated 2005).
